Reference: publication PMC9740702, “Binding and Detoxification of Insecticides by Potentially Probiotic Lactic Acid Bacteria Isolated from Honeybee (Apis mellifera L.) Environment—An In Vitro Study” (Cells, 2022)

Key:
LAB = tested on: LAB; parameters: method as in earlier work; settings: concentrations above 2 ppm; cited from earlier work
LAB strains [1] = experiment: Binding of pesticides to the cell wall of LAB (extent of binding); settings: whole live LAB cells, initial 100 µg/mL, 24 h
Experimental: Overnight cultures of LAB in MRS/MRS-F broth were centrifuged (3864× g, 15 min), and biomass was washed with sterile ultrapure water and centrifuged again. This procedure was repeated until the MRS/MRS-F broth was completely washed. Next, the biomass of whole live LAB cells was suspended in sterile ultrapure water with an individual pesticide solution (at a final concentration of 100 µg/mL, v/v) and thoroughly mixed. The density of LAB cells was 1.8–2.4 × 10^9 CFU/mL (6.0–8.0 according to McFarland standard). The positive controls (standards) were individual pesticides without LAB strains. Negative controls were LAB strains suspended in sterile ultrapure water without pesticides. The samples were incubated anaerobically at 30 °C for 24 h with continuous orbital shaking (240 r.p.m.) (LAUDA Varioshake VS 8 OE Shaker, Dr. R. Wobser Gmbh & Co., Lauda-Königshofen, […]). Finally, the supernatants containing residual pesticide were collected by centrifugation (10,733× g, 20 min) and were filtered using sterile syringe filters (0.22 μm) and frozen in sterile vials until analysis at −20 °C.
Pesticides were analyzed according to Hafeez et al. (2015) using the HPLC-DAD technique with some modifications. For the qualitative–quantitative determination of pesticides, HPLC analysis was performed using a UHPLC+ Dionex UltiMate 3000 system (Thermo Fisher Scientific Inc., Waltham, MA, USA) equipped with a UV–Vis detector (Thermo Fisher Scientific Inc., Waltham, MA, USA) and NUCLEOSIL C18 column (4.6 × 250 mm, 5 µm particle size; Macherey-Nagel, Germany). Isocratic elution was carried out with 70/30 (v/v) acetonitrile/water as the mobile phase. The flow rate was set to 1.0 mL/min, and the column temperature was 25 °C. The injection volume was 20 µL. Detection and quantification were performed with two wavelengths: 219 nm for chlorpyrifos and coumaphos and 270 nm for imidacloprid. Quantification was performed using an external standard method. All measurements were made twice.

P. pentosaceus 14/1 = experiment: Effect of pesticides on the growth of LAB (microtitration assay); assay type: cell-based, Pediococcus pentosaceus; settings: 48 h incubation, versus non-exposed cells
Experimental: (§1) The experiments were conducted in transparent 96-well polystyrene microplates. The final concentrations of tested pesticides were 20, 100, and 500 µg/mL. Each well was inoculated with an overnight culture of an individual LAB strain at the density of 1.8–2.4 × 10^9 CFU/mL (6.0–8.0 according to McFarland standard). Each strain was tested in 4 replicates. Negative controls were non-exposed bacterial cells in MRS or MRS-F broth. The test was performed at 30 or 37 °C for 48 h.

[2] = tested on: Enterococcus faecium E86, Lactococcus lactis subsp. lactis ATCC 11454, L. rhamnosus GG ATCC 53103, L. lactis Garvie ATCC 19256, Leuconostoc mesenteroides subsp.; parameters: method as in doi:10.1016/j.lwt.2019.02.037; settings: 500 mg/L; cited from earlier work
L. plantarum ISO = tested on: L. plantarum ISO; parameters: method as in PMID 28578396; settings: 295 µM, MRS medium, log phase; cited from earlier work
LAB strains [3] = tested on: LAB strains; parameters: method as in PMID 28324568; settings: cited from earlier work
P. acidilactici 8/1 = experiment: Effect of pesticides on the growth of LAB (microtitration assay); assay type: cell-based, Pediococcus acidilactici; settings: 100 µg/mL, 48 h incubation, versus non-exposed cells
Experimental: as §1

[4] = tested on: prostate epithelial WPM-Y1 cell line; parameters: method as in PMID 33456462; settings: 24 h, MTT assay; read-out: median inhibition value; cited from earlier work
[5] = tested on: cat (Felis catus) fibroblast cells; settings: cited from earlier work

In the case of `ClC1=C(Cl)C2(Cl)C3C4CC(C5OC45)C3C1(Cl)C2(Cl)Cl` (stereo not shown) [endrin], the “effect on lactic acid production by LAB” value (LAB) is given as “completely inhibited”.
In the case of `CCOP(=S)(OCC)Oc1ccc2c(C)c(Cl)c(=O)oc2c1` [coumaphos], the “pesticide binding by LAB (highest extent)” value (“pesticide binding by LAB” below) (LAB strains [1]) is reported as “up to 57%” and the bacterial growth (P. pentosaceus 14/1; 500 µg/mL) is reported as 100.6%.
For `CCOP(=S)(OCC)Oc1nc(Cl)c(Cl)cc1Cl` [chlorpyrifos], the “effect on growth of LAB” value [2] is listed as “did not affect the growth”, the “effect on growth of L. plantarum ISO” value (L. plantarum ISO) is listed as “significantly reduced the growth” and the “chlorpyrifos concentration at which some LAB strains were able to grow” value (LAB strains [3]) is listed as over 1400 µg/mL. The bacterial growth (P. pentosaceus 14/1; 20 µg/mL) was 99.94%.
With `O=[N+]([O-])NC1=NCCN1Cc1ccc(Cl)nc1` [imidacloprid] the bacterial growth (P. acidilactici 8/1) was 101.84%, the “pesticide binding by LAB” value (LAB strains [1]) was at most 36% and the “pesticide binding by LAB” value (LAB strains [1]; listed as Imidacloprid) was “about 36%”. The IC50 [4] was 23 µM.
For `CCOC(=O)CC(SP(=S)(OC)OC)C(=O)OCC` (stereo not shown) [Malathion], the “concentration at which maximum DNA damage was recorded” value [5] is given as 45000 µM.
In the case of `Cl[C@H]1[C@H](Cl)[C@@H](Cl)[C@@H](Cl)[C@H](Cl)[C@H]1Cl` [lindane], the “effect on lactic acid production by LAB” value (LAB) is listed as “completely inhibited”.
